Measured values reported in PubChem BioAssay AID190 (DTP/NCI, 2004).
Values joined by “and” are separate entries in the source; they are usually repeats but may differ in a detail not shown here. Equal entries are not always repeated. Inconclusive results and toxic doses are left out. How the source made its calls: active means survival T/C of 150% or more; inactive means T/C below 125% in these data.

Test system: AKR/Lw mice, AKR lymphoma ip, median survival T/C
Assay: NCI In Vivo Anticancer Drug Screen. Data for tumor model Lymphoma AKR (Transplanted) (intraperitoneal) in AKR/Lw mice
Conditions: endpoint: median survival time, higher = longer survival
Description: The antitumor activity of compounds was measured in mice bearing transplantable tumors. Survival or tumor size were measured and the results are expressed as the measurement made in the treated group (T) divided by the measurement made in the vehicle treated control group (C). The tumor model used in this assay is Lymphoma AKR (Transplanted) (intraperitoneal) in AKR/Lw mice

Measured: T/C

O=c1[nH]cc(F)c(=O)[nH]1
123 % of control and 291 % of control: dose: 45.0 mg/kg/injection, schedule: Q04DX004 (ip), vehicle: saline
inactive: dose: 1.25 mg/kg/injection, schedule: Q03HX032 (ip), vehicle: saline 118 % of control | dose: 2.5 mg/kg/injection, schedule: Q01DX005 (ip), vehicle: saline 114 % of control | dose: 2.5 mg/kg/injection, schedule: Q01DX015 (ip), vehicle: saline 113 % of control | dose: 3.1 mg/kg/injection, schedule: Q04DX003 (ip), vehicle: saline 123 % of control | dose: 5.0 mg/kg/injection, schedule: Q01DX001 (ip), vehicle: saline 102 % of control | dose: 5.0 mg/kg/injection, schedule: Q01DX009 (ip), vehicle: saline 100 % of control and 106 % of control | dose: 5.0 mg/kg/injection, schedule: Q01DX015 (ip), vehicle: saline 108 % of control | dose: 5.0 mg/kg/injection, schedule: Q04DX003 (ip), vehicle: saline 97 % of control | dose: 5.0 mg/kg/injection, schedule: Q04DX004 (ip), vehicle: saline 115 % of control | dose: 5.0 mg/kg/injection, schedule: Q##DX003 (ip), vehicle: saline 97 % of control | dose: 6.2 mg/kg/injection, schedule: Q01DX001 (ip), vehicle: saline 104 % of control | dose: 6.2 mg/kg/injection, schedule: Q04DX003 (ip), vehicle: saline 113 % of control | dose: 7.5 mg/kg/injection, schedule: Q01DX009 (ip), vehicle: saline 105 % of control | dose: 9.0 mg/kg/injection, schedule: Q04DX003 (ip), vehicle: saline 112 % of control | dose: 10.0 mg/kg/injection, schedule: Q01DX001 (ip), vehicle: saline 94 % of control | dose: 10.0 mg/kg/injection, schedule: Q01DX009 (ip), vehicle: saline with Tween-80 118 % of control | dose: 12.5 mg/kg/injection, schedule: Q01DX001 (ip), vehicle: saline 100 % of control and 121 % of control | dose: 15.0 mg/kg/injection, schedule: Q01DX009 (ip), vehicle: saline 113 % of control | dose: 15.0 mg/kg/injection, schedule: Q04DX004 (ip), vehicle: saline 113 % of control | dose: 18.0 mg/kg/injection, schedule: Q04DX003 (ip), vehicle: water 98 % of control | dose: 20.0 mg/kg/injection, schedule: Q01DX001 (ip), vehicle: saline 105 % of control | dose: 20.0 mg/kg/injection, schedule: Q01DX009 (ip), vehicle: saline with Tween-80 122 % of control | dose: 20.0 mg/kg/injection, schedule: Q03HX024 (ip), vehicle: saline 95 % of control | dose: 20.0 mg/kg/injection, schedule: Q04DX003 (ip), vehicle: saline 107 % of control | dose: 20.0 mg/kg/injection, schedule: Q##DX003 (ip), vehicle: saline 107 % of control | dose: 24.0 mg/kg/injection, schedule: Q04DX003 (ip), vehicle: water 119 % of control | dose: 25.0 mg/kg/injection, schedule: Q01DX001 (ip), vehicle: saline 109 % of control and 116 % of control | dose: 30.0 mg/kg/injection, schedule: Q04DX004 (ip), vehicle: saline 107 % of control | dose: 40.0 mg/kg/injection, schedule: Q01DX009 (ip), vehicle: saline with Tween-80 86 % of control | dose: 40.0 mg/kg/injection, schedule: Q##DX003 (ip), vehicle: saline 97 % of control | dose: 60.0 mg/kg/injection, schedule: Q04DX003 (ip), vehicle: saline 89 % of control | dose: 60.0 mg/kg/injection, schedule: Q04DX008 (ip), vehicle: saline 108 % of control | dose: 75.0 mg/kg/injection, schedule: Q04DX004 (ip), vehicle: saline 88 % of control | dose: 80.0 mg/kg/injection, schedule: Q04DX003 (ip), vehicle: saline 99 % of control | dose: 150.0 mg/kg/injection, schedule: Q04DX003 (ip), vehicle: saline 105 % of control | dose: 300.0 mg/kg/injection, schedule: Q04DX003 (ip), vehicle: saline 88 % of control
active: dose: 1.25 mg/kg/injection, schedule: Q01DX005 (ip), vehicle: saline 152 % of control | dose: 10.0 mg/kg/injection, schedule: Q01DX015 (ip), vehicle: saline 180 % of control | dose: 10.0 mg/kg/injection, schedule: Q04DX003 (ip), vehicle: saline 168 % of control | dose: 10.0 mg/kg/injection, schedule: Q##DX003 (ip), vehicle: saline 168 % of control | dose: 15.0 mg/kg/injection, schedule: Q01DX015 (ip), vehicle: saline 150 % of control and 177 % of control | dose: 20.0 mg/kg/injection, schedule: Q01DX005 (ip), vehicle: saline 161 % of control | dose: 20.0 mg/kg/injection, schedule: Q01DX015 (ip), vehicle: saline 167 % of control | dose: 30.0 mg/kg/injection, schedule: Q01DX005 (ip), vehicle: saline 161 % of control | dose: 30.0 mg/kg/injection, schedule: Q01DX009 (ip), vehicle: saline 177 % of control | dose: 36.0 mg/kg/injection, schedule: Q04DX003 (ip), vehicle: water 163 % of control | dose: 40.0 mg/kg/injection, schedule: Q04DX004 (ip), vehicle: saline 168 % of control | dose: 60.0 mg/kg/injection, schedule: Q04DX004 (ip), vehicle: saline 157 % of control and 352 % of control | dose: 75.0 mg/kg/injection, schedule: Q01DX001 (ip), vehicle: saline 150 % of control and 166 % of control | dose: 75.0 mg/kg/injection, schedule: Q04DX003 (ip), vehicle: saline 260 % of control

COC(=O)C1CC2C(Cl)=C(Cl)C1(Cl)C2(Cl)Cl (configuration not stated)
inactive: dose: 25.0 mg/kg/injection, schedule: Q04DX003 (ip), vehicle: saline 108 % of control | dose: 50.0 mg/kg/injection, schedule: Q04DX003 (ip), vehicle: saline 100 % of control | dose: 100.0 mg/kg/injection, schedule: Q01DX001 (ip), vehicle: saline 96 % of control | dose: 100.0 mg/kg/injection, schedule: Q04DX003 (ip), vehicle: saline 95 % of control | dose: 200.0 mg/kg/injection, schedule: Q01DX001 (ip), vehicle: saline 105 % of control | dose: 400.0 mg/kg/injection, schedule: Q01DX001 (ip), vehicle: saline 103 % of control
